What all share (assay type): functional
One assay concerns Staphylococcus aureus. Briefly: Antibacterial activity against Staphylococcus aureus NCIM 5022 after 24 hr by agar well diffusion method. Conditions: NCIM 5022, 24 h. (In general: In agar diffusion tests the substance spreads into inoculated agar from a disc or well.)
A further assay deals with Proteus vulgaris. Briefly: Antibacterial activity against Proteus vulgaris NCIM 2857 after 24 hr by agar well diffusion method. The note with it: NCIM 2857, 24 h.
Another assay deals with Escherichia coli. The assay can be described thus: Antibacterial activity against Escherichia coli NCIM 5051 after 24 hr by agar well diffusion method. The note with it: NCIM 5051, 24 h.
In the next assay the test system is Salmonella typhi. Briefly: Antibacterial activity against Salmonella enterica subsp. enterica serovar Typhi ATCC 19430 after 24 hr by agar well diffusion method. The note with it: ATCC 19430, 24 h.
The next assay deals with Bacillus subtilis. Briefly: Antibacterial activity against Bacillus subtilis NCIM 2920 after 24 hr by agar well diffusion method. Conditions: NCIM 2920, 24 h.
The subject of a further assay is Pseudomonas aeruginosa. The assay can be described thus: Antibacterial activity against Pseudomonas aeruginosa NCIM 2945 after 24 hr by agar well diffusion method. Conditions: NCIM 2945, 24 h.

Converted amounts (≈) assume the structure as drawn.

This passage reports MIC results from ChEMBL document CHEMBL3046598, “In vitro antimicrobial and molecular docking of dichloro substituted benzoxazole derivatives” (2012).

The term MIC denotes the smallest concentration in the dilution series that meets the test's criterion for growth inhibition. A low value points to a more susceptible organism. In the case of `Sc1nc2cc(Cl)cc(Cl)c2o1`, the MIC against Staphylococcus aureus is 25 mg/L (≈ 114 µM); against Proteus vulgaris it was 3.12 mg/L (≈ 14.2 µM); in the assay on Escherichia coli it was 3.12 mg/L (≈ 14.2 µM); against Salmonella typhi, 50 mg/L (≈ 227 µM); with Bacillus subtilis, 6.25 mg/L (≈ 28.4 µM); against Pseudomonas aeruginosa, 3.12 mg/L (≈ 14.2 µM).

Take `CCOC(=O)CSc1nc2cc(Cl)cc(Cl)c2o1`: the MIC against Staphylococcus aureus is 25 mg/L (≈ 81.7 µM); in the assay with Proteus vulgaris, 6.25 mg/L (≈ 20.4 µM); against Escherichia coli, 6.25 mg/L (≈ 20.4 µM); in the assay on Bacillus subtilis, 3.12 mg/L (≈ 10.2 µM); with Pseudomonas aeruginosa, 3.12 mg/L (≈ 10.2 µM).

As for `NNc1nc2cc(Cl)cc(Cl)c2o1`, the MIC in the assay on Staphylococcus aureus turned out to be 6.25 mg/L (≈ 28.7 µM); against Proteus vulgaris, 3.12 mg/L (≈ 14.3 µM); in the assay with Escherichia coli it was 50 mg/L (≈ 229 µM); with Bacillus subtilis, 6.25 mg/L (≈ 28.7 µM).

On to `S=c1[nH]nc2oc3c(Cl)cc(Cl)cc3n12`, for which the MIC came out at 3.12 mg/L (≈ 12 µM) in the assay with Staphylococcus aureus; 6.25 mg/L (≈ 24 µM) in the assay with Proteus vulgaris; 3.12 mg/L (≈ 12 µM) in the assay on Escherichia coli; 50 mg/L (≈ 192 µM) against Salmonella typhi; 3.12 mg/L (≈ 12 µM) with Bacillus subtilis; 3.12 mg/L (≈ 12 µM) against Pseudomonas aeruginosa.

As to `CCOC(=O)CSc1nnc2oc3c(Cl)cc(Cl)cc3n12`, the minimum inhibitory concentration (MIC) against Staphylococcus aureus is 6.25 mg/L (≈ 18.1 µM); in the assay with Proteus vulgaris it was 3.12 mg/L (≈ 9.03 µM); against Escherichia coli, 3.12 mg/L (≈ 9.03 µM); against Salmonella typhi it was 50 mg/L (≈ 144 µM); in the assay on Bacillus subtilis, 3.12 mg/L (≈ 9.03 µM); in the assay on Pseudomonas aeruginosa it was 3.12 mg/L (≈ 9.03 µM).

With `O=[N+]([O-])c1ccc(NCn2nc3oc4c(Cl)cc(Cl)cc4n3c2=S)cc1`, the minimum inhibitory concentration (MIC) against Staphylococcus aureus is 3.12 mg/L (≈ 7.62 µM); with Proteus vulgaris, 6.25 mg/L (≈ 15.2 µM); with Bacillus subtilis it was 6.25 mg/L (≈ 15.2 µM); with Pseudomonas aeruginosa it was 3.12 mg/L (≈ 7.62 µM).

For the compound `O=C(O)c1cn(C2CC2)c2cc(N3CCNCC3)c(F)cc2c1=O` [CIPROFLOXACIN], the MIC is 3.12 mg/L (≈ 9.43 µM) in the assay on Staphylococcus aureus; 3.12 mg/L (≈ 9.43 µM) with Proteus vulgaris; 3.12 mg/L (≈ 9.43 µM) against Escherichia coli; 6.25 mg/L (≈ 18.9 µM) against Salmonella typhi; 3.12 mg/L (≈ 9.43 µM) against Bacillus subtilis; 3.12 mg/L (≈ 9.43 µM) in the assay on Pseudomonas aeruginosa.
